Source: patent publication US11939398B2, “Modified peptides for use in treating neurodegenerative disorders” (Neuro-Bio Ltd, priority 2016, dated 2024)
“Also recorded” adds a separate entry of the source. Where a SMILES comes first, the peptide text is derived from it. [ ]: non-standard residue; d: D form. Phe(4-NH2) = Nc1ccc(C[C@H](N)C(=O)O)cc1; 2Nal = N[C@@H](Cc1ccc2ccccc2c1)C(=O)O

Experiments:
[1] = biological target: α7 nicotinic-receptor (Homo sapiens, UniProt P36544); settings: cited from earlier work
Sequence of α7 nicotinic-receptor (P36544 23-502): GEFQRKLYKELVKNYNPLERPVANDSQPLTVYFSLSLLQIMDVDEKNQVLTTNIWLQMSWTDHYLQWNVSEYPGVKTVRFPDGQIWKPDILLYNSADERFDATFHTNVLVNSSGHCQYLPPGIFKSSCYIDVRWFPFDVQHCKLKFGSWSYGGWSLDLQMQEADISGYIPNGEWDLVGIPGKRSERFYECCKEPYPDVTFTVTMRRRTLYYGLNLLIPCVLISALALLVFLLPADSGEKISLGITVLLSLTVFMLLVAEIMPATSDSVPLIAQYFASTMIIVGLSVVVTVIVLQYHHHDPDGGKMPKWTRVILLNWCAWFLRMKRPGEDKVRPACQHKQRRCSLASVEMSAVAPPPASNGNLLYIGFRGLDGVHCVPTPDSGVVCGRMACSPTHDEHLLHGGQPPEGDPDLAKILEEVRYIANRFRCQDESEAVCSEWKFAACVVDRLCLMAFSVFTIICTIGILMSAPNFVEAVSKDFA

[2] = tested on: PC12 cells; test: AChE activity assay (Ellman reagent) in PC12 cells treated with T30; type: cell-based; settings: combined with T30 (1 μM)
Description: AChE activity was measured using the Ellman reagent that measures the presence of thiol groups as a result of AChE activity. In the case of the G4 experiment, AChE (G4) activity was tested alone and also together with either NBP14 or Tri peptides. PC12 cells were plated the day before the experiment as for the cell viability assay. Cells were treated with T30 (1 μM) alone or combined with NBP14 or Tri peptide (0.5 μM). After treatment, supernatant (perfusate) of each treatment was collected and 25 μL from each condition were added to a new flat bottomed 96 well plate followed by the addition of 175 μl of Ellman reagent (Solution A: KH2PO4 139 mM and K2HPO4 79.66 mM, pH 7.0; solution B (substrate): Acetylthiocholine Iodide 11.5 mM; Solution C (Reagent): 5,5′-dithiobis(2-nitrobenzoic acid) 8 mM and NaHCO3 15 mM). The Ellman reagent was prepared as a mixture of the 3 solutions in a ratio 33(A):3(B):4(C). Absorbance measurements were taken for an interval of 60 minutes across experiments at 405 nm in a Vmax plate reader (Molecular devices, Wokingham, UK).
In each of the different cell techniques, the statistics analysis was performed with the average of the percentage values of 3 or more experiments. […]

[3] = tested on: PC12 cells; test: Calcium fluorometry (Fluo-8, PNU282987-induced calcium increase) in PC12 cells; type: cell-based; settings: in conjunction with T30, PC12 cells
Description: PC12 cells were plated in 200 μl of Dulbecco's Modified Eagle's medium (DMEM) plus 2 mM of L-glutamine medium the day before the experiment in 96 well plates. On the day of the experiment, the Fluo-8 solution (Abcam) was prepared as described by the provider by adding 20 μl of Fluo-8 in the assay buffer that contains 9 ml of Hank's Balanced Salt Solution (HBSS) and 1 ml of pluronic F127 Plus. Subsequently, 100 μl of growth medium was removed and 100 μl of Fluo-8 solution were added. Treatments with T30 in conjunction with NBP14 or Tri peptides were added and incubated for 30 minutes in the incubator and 30 minutes room temperature. After 1 h, the plate was placed in the fluorescence plate reader (Fluostar, Optima, BMG Labtech, Ortenberg, Germany). Before reading the fluorescence, PNU282987 1 μM, an alpha7 specific agonist of the nicotinic receptors, was prepared and placed in the Fluostar injector. For each well, the reading was formed by a basal fluorescence reading followed by PNU282987 injection that induced an increase of calcium via nicotinic receptors.
In each of the different cell techniques, the statistics analysis was performed with the average of the percentage values of 3 or more experiments. Comparisons between multiple treatment groups and the same control were performed by one-way analysis of variance (ANOVA) and Tukey's post-hoc tests using GraphPAD Instat (GraphPAD software, San Diego, California). Statistical significance was taken at a p value<0.05.

[4] = tested on: rat basal forebrain slices; test: voltage-sensitive dye imaging (VSDI) on brain slices, Example 5; type: cell-based
Description: Male Wistar rats (14 days old) were anaesthetised using isoflurane (˜15 ml, 100% w/w). Isoflurane was applied to the cotton bed at the bottom of an anaesthetic chamber (glass box 20×15×15 cm) where rats were then placed for approximately 45 s until complete anaesthesia was reached. The hind paw of each anaesthetised rat was pinched to check for the appropriate depth of anaesthesia. Upon confirmation of anaesthesia, rats were quickly decapitated, with the brain being quickly removed and immersed in ice cold oxygenated ‘slicing’ artificial cerebrospinal fluid (aCSF in mmol: 120 NaCl, 5 KCL, 20 NaHCO3, 2.4 CaCl2 2 MgSO4, 1.2 KH2PO4, 10 glucose, 6.7 HEPES salt and 3.3 HEPES acid; pH=7.1). Coronal slices (400 μm thick) were then taken from a block of brain containing the basal forebrain, namely the MS-dBB complex (between +9.20 and +9.48 mm Interaural and +0.48 and +0.2 mm Bregma, FIG. 4A) and the somatosensory barrel field cortex (SiBF, between +8.08 and +7.20 mm Interaural and −0.92 mm and −1.80 mm Bregma) (Paxinos and Watson, 1998) using a Vibratome (Leica VTi000S).
Slices were then transferred to a bubbler pot containing oxygenated aCSF at room temperature (recording aCSF in mmol: 124 NaCl, 5 KCL, 20 NaHCO3, 2.4 CaCl2 2 MgSO4, 1.3 KH2PO4, 10 glucose; pH=7.4) which was identical to that used in VSDI (voltage sensitive dye imaging) recording. Slices were then left for approximately 1-1.5 hours before preparing them for VSD staining.
Slices were placed in a dark, high humidity chamber filled with aCSF bubbled with 95% O2, 5% CO2. Once there, the dye solution (4% 0.2 mM styryl dye pyridinium 4-[2-[6-(dibutylamino)-2-napthalenyl]-ethenyl]-1-(3-sulfopropyl)hydroxide (Di-4-NEPPS), Invitrogen, Paisley, UK in 48% aCSF, 48% foetal bovine serum, 3.5% DMSO and 0.4% cremophore EL) (Tominaga et al., 2000) was applied to the slices for 20-25 minutes before being transferred back to a bubbler pot containing oxygenated aCSF kept at room temperature for 30 minutes.
When starting the VSDI recordings, slices were placed in the recording bath on a small piece of filter paper to allow the flow of oxygenated aCSF on the underside of the slice and in order to keep it alive. The slice was then weighed down by a home-made plastic grid that was placed on top of the slice. […] For the acquisition of VSD data, 2 dimensional images, equivalent to 88×60 pixels, were recorded using the MiCamo2 High Resolution camera (Brain Vision, Japan) with BV_Analyze imaging software. […] Light was generated using an Osram halogen xenophot 64634 HLX EFR Display/Optic lamp and was filtered to emit green (530±10 nm) light using a MHF-G150LR (Moritex Corporation) coupled to the MiCamo2 High resolution imaging system and filtered the emitted fluorescence through a >590 nm high pass filter. […]

[5] = stability / degradation in rat blood; type: in vitro ADME; settings: rat blood diluted with PBS
Description: (§1) Test compounds were spiked at 10 μg/ml into either PBS or blood (Male Wistar rat or Human) diluted with PBS, and a series of samples taken according to the following scheme:
(§2) Procaine, a compound known to be unstable in blood, was included as a positive control (ran with 5-fold diluted blood only). The sampling procedure was to add an aliquot to ice-cold acetonitrile, centrifuge, and store the supernatant on dry ice until analysis. Analysis by UHPLC-TOF mass spectrometry using electrospray ionisation was performed on the same day as the incubations were performed.

[6] = stability / degradation in human blood; type: in vitro ADME; settings: human blood diluted with PBS
Description: as §1, §2

Row | SMILES | affinity for the α7 nicotinic-receptor [1] [µM] | protection against T30-induced AChE activity [2] | protection against T30-induced calcium influx [3] | blocking of T30-induced deviations from baseline (VSDI) ([4]; 4 μM co-perfused with T30 (2 uM)) | change in magnitude (summed fluorescence) of evoked responses, compound alone ([4]; 4 μM in perfusate, no T30) | stability in blood ([5]; 10 μg/ml, up to 60 min) | degradants detected ([5]; UHPLC-TOF MS) | stability in blood ([6]; 10 μg/ml, up to 60 min) | degradants detected ([6]; UHPLC-TOF MS)
1 | COc1ccc2c3c1O[C@H]1C[C@@H](O)C=C[C@@]31CCN(C)C2 [galanthamine] | 10 |  |  |  |  |  |  |  | 
2 | CC(=O)N[C@@H](Cc1ccc2ccccc2c1)C(=O)N[C@@H](Cc1ccc(N)cc1)C(=O)N[C@@H](Cc1c[nH]c2ccccc12)C(N)=O [Tri02, 4-((S)-2((S)-2-acetamido-3-(naphthalene-2-yl)propanamido)-3-(((S)-1-amino-3-(1H-indol-3-yl)-1-oxopropan-2-yl)amino)-3-oxopropyl)benzenaminium] (Ac-[2Nal]-[Phe(4-NH2)]-Trp-NH2) |  | protects against the toxic effects of T30 | protects against the toxic effects of T30 | not found to protect against T30-induced deviations from baseline; also recorded: some efficacy in blocking those T30-induced deviation | recapitulates results seen with application of 4 μM NBP14; also recorded: small alterations | some instability | a variety of degradants were detected | some instability | a variety of degradants were detected
